Laboratory results from patent US9750259B2, “Pyroxasulfone and glutamine synthesis inhibitor compositions for weed control” (Valent U.S.A., priority 2014, dated 2017).

Legend:
Palmer Amaranth [1] = experiment: Field test in Roundup Ready soybeans: control (kill) of emerged Palmer Amaranth, reading 14 DAT; format: in vivo, Amaranthus palmeri; conditions: post emergence, all treatments with MSO 1% v/v, glufosinate 593, pyroxasulfone 90, flumiclorac-pentyl 73 g active/ha, % printed in b55 only
Procedure: (§1) The following field test was conducted. Roundup Ready soybeans (Glycine max) were used in the test as the crop plant. All of the treatments contained MSO concentrate oil at 1% v/v.
(§2) When the test began, the test plot had weeds that were less than […] tall. Treatments were administered at the concentrations as follows. Glufosinate-ammonium was administered at 593 grams/hectare. Pyroxasulfone was administered at 90 grams/hectare throughout the experiment.
(§3) On 14 DAT, readings were taken to determine the survival of Palmer Amaranth. On 21 DAT, readings were taken to determine the residual control of Palmer Amaranth and Horseweed. Survival ratings were taken by counting the number of alive and dead plants at the time of the reading. All data was analyzed using Bartlett's test and with p value of […] for determining significance of the results. The Effect of Glufosinate and Pyroxasulfone on Weeds.”

Horseweed = experiment: Field test in Roundup Ready soybeans: control of Horseweed, reading 21 DAT; format: in vivo, Conyza Canadensis; conditions: all treatments with MSO 1% v/v, glufosinate 593, pyroxasulfone 90, flumiclorac-pentyl 73 g active/ha, % printed in b55 only
Procedure: as §1, §2, §3

Palmer Amaranth [2] = experiment: Field test in Roundup Ready soybeans: residual control of Palmer Amaranth, reading 21 DAT; format: in vivo, Amaranthus palmeri; conditions: all treatments with MSO 1% v/v, glufosinate 593, pyroxasulfone 90, flumiclorac-pentyl 73 g active/ha, % printed in b55 only
Procedure: as §1, §2, §3

SMILES	Palmer amaranth (<2″ tall) control / kill rate (Palmer Amaranth [1]) [%]	Horseweed (bolted) control / kill rate (Horseweed) [%]	Residual control of Palmer amaranth (Palmer Amaranth [2]) [%]
CP(=O)(O)CCC(N)C(=O)O (racemic) [glufosinate, DL-4-[hydroxy](methyl)phosphinoyl]-DL-homoalaninate]	90	75	93
Cn1nc(C(F)(F)F)c(CS(=O)(=O)C2=NOC(C)(C)C2)c1OC(F)F [pyroxasulfone, 3-[[[5-(difluoromethoxy)-1-methyl-3 (trifluoromethyl)-1H-pyrazol-4-yl]methyl]sulfonyl]-4,5-dihydro-5,5-dimethylisoxazole]	5	–	99
